ChEMBL document CHEMBL1687783, “Prevalence and dissemination of oqxAB in Escherichia coli isolates from animals, farmworkers, and the environment” (2010)
In brackets after ≈: the same amount, converted by molar mass.

What was measured:
Escherichia coli [1] = assay: Antimicrobial activity against oqxAB positive Escherichia coli C600 SP8-T transconjugant by CLSI agar dilution method; type: functional
Escherichia coli [2] = assay: Antimicrobial activity against oqxAB positive Escherichia coli C600 G262-T transconjugant by CLSI agar dilution method
Escherichia coli [3] = assay: Antimicrobial activity against oqxAB positive Escherichia coli C600 W245-T transconjugant by CLSI agar dilution method; type: functional
Escherichia coli [4] = assay: Antimicrobial activity against oqxAB positive Escherichia coli C600 W191-T transconjugant by CLSI agar dilution method; type: functional
Escherichia coli [5] = assay: Antimicrobial activity against oqxAB positive Escherichia coli C600 W322-T transconjugant by CLSI agar dilution method; type: functional
Escherichia coli [6] = assay: Antimicrobial activity against oqxAB positive Escherichia coli C600 SW8-T transconjugant by CLSI agar dilution method; type: functional
Escherichia coli [7] = assay: Antimicrobial activity against oqxAB positive Escherichia coli C600 X1B1-T transconjugant by CLSI agar dilution method
Escherichia coli [8] = assay: Antimicrobial activity against oqxAB positive Escherichia coli C600 D83-T transconjugant by CLSI agar dilution method; type: functional
Escherichia coli [9] = assay: Antimicrobial activity against Escherichia coli DH5[alpha] by CLSI agar dilution method
Escherichia coli [10] = assay: Antimicrobial activity against oqxAB positive Escherichia coli C600 XT11-T transconjugant by CLSI agar dilution method
Escherichia coli [11] = assay: Antimicrobial activity against oqxAB positive Escherichia coli C600 W281-T transconjugant by CLSI agar dilution method
Escherichia coli [12] = assay: Antimicrobial activity against oqxAB positive Escherichia coli C600 G375-T transconjugant by CLSI agar dilution method; type: functional
Escherichia coli [13] = assay: Antimicrobial activity against Escherichia coli C600 ST2-T transconjugant harboring oqxAB, qnrB6 and aac(6')-Ib-cr genes by CLSI agar dilution method; type: functional
Escherichia coli [14] = assay: Antimicrobial activity against Escherichia coli C600 by CLSI agar dilution method
Escherichia coli [15] = assay: Antimicrobial activity against oqxAB positive Escherichia coli C600 G062-T transconjugant by CLSI agar dilution method
Escherichia coli [16] = assay: Antimicrobial activity against oqxAB positive Escherichia coli DH5[alpha] harboring pMD18-T::oqxAB by CLSI agar dilution method; type: functional

Row | Molecule | MIC (Escherichia coli [1]) [µg/mL] | MIC (Escherichia coli [2]) [µg/mL] | MIC (Escherichia coli [3]) [µg/mL] | MIC (Escherichia coli [4]) [µg/mL] | MIC (Escherichia coli [5]) [µg/mL] | MIC (Escherichia coli [6]) [µg/mL] | MIC (Escherichia coli [7]) [µg/mL] | MIC (Escherichia coli [8]) [µg/mL] | MIC (Escherichia coli [9]) [µg/mL] | MIC (Escherichia coli [10]) [µg/mL] | MIC (Escherichia coli [11]) [µg/mL] | MIC (Escherichia coli [12]) [µg/mL] | MIC (Escherichia coli [13]) [µg/mL] | MIC (Escherichia coli [14]) [µg/mL] | MIC (Escherichia coli [15]) [µg/mL] | MIC (Escherichia coli [16]) [µg/mL]
1 | CC1(C)S[C@@H]2[C@H](NC(=O)[C@H](N)c3ccccc3)C(=O)N2[C@H]1C(=O)O [AMPICILLIN] | > 128 | 8 (≈ 22.9 µM) | > 128 | > 128 | > 128 | > 128 | 16 (≈ 45.8 µM) | 16 (≈ 45.8 µM) | > 128 | > 128 | > 128 | 16 (≈ 45.8 µM) | 4 (≈ 11.4 µM) | 4 (≈ 11.4 µM) | > 128 | 
2 | O=C(N[C@H](CO)[C@H](O)c1ccc([N+](=O)[O-])cc1)C(Cl)Cl [CHLORAMPHENICOL] | 64 (≈ 198 µM) | 128 (≈ 396 µM) | 64 (≈ 198 µM) | 128 (≈ 396 µM) | 64 (≈ 198 µM) | 128 (≈ 396 µM) | 128 (≈ 396 µM) | 32 (≈ 99 µM) | 4 (≈ 12.4 µM) | 128 (≈ 396 µM) | 128 (≈ 396 µM) | 32 (≈ 99 µM) | 32 (≈ 99 µM) | 4 (≈ 12.4 µM) | 32 (≈ 99 µM) | 64 (≈ 198 µM)
3 | CCN1CCN(c2cc3c(cc2F)c(=O)c(C(=O)O)cn3C2CC2)CC1 [ENROFLOXACIN] | 0.06 (≈ 0.167 µM) | 0.125 (≈ 0.348 µM) | 0.06 (≈ 0.167 µM) | 0.125 (≈ 0.348 µM) | 0.125 (≈ 0.348 µM) | 0.125 (≈ 0.348 µM) | 0.125 (≈ 0.348 µM) | 0.06 (≈ 0.167 µM) | 0.016 (≈ 0.0445 µM) | 0.06 (≈ 0.167 µM) | 0.06 (≈ 0.167 µM) | 0.125 (≈ 0.348 µM) | 2 (≈ 5.56 µM) | 0.016 (≈ 0.0445 µM) | 0.125 (≈ 0.348 µM) | 0.125 (≈ 0.348 µM)
4 | CS(=O)(=O)c1ccc([C@@H](O)[C@@H](CF)NC(=O)C(Cl)Cl)cc1 [FLORFENICOL] | 16 (≈ 44.7 µM) | 16 (≈ 44.7 µM) | 16 (≈ 44.7 µM) | 16 (≈ 44.7 µM) | 16 (≈ 44.7 µM) | 16 (≈ 44.7 µM) | 16 (≈ 44.7 µM) | 8 (≈ 22.3 µM) | 4 (≈ 11.2 µM) | 16 (≈ 44.7 µM) | 16 (≈ 44.7 µM) | 16 (≈ 44.7 µM) | 4 (≈ 11.2 µM) | 2 (≈ 5.58 µM) | 16 (≈ 44.7 µM) | 16 (≈ 44.7 µM)
5 | CC(=O)c1c(C)[n+]([O-])c2ccccc2[n+]1[O-] [MEQUINDOX] | 256 (≈ 1170 µM) | 128 (≈ 587 µM) | 128 (≈ 587 µM) | 128 (≈ 587 µM) | 256 (≈ 1170 µM) | 256 (≈ 1170 µM) | 64 (≈ 293 µM) | 128 (≈ 587 µM) | 4 (≈ 18.3 µM) | 128 (≈ 587 µM) | 64 (≈ 293 µM) | 256 (≈ 1170 µM) | 128 (≈ 587 µM) | 4 (≈ 18.3 µM) | 128 (≈ 587 µM) | 64 (≈ 293 µM)
6 | CCn1cc(C(=O)O)c(=O)c2ccc(C)nc21 [NALIDIXIC ACID] | 32 (≈ 138 µM) | 16 (≈ 68.9 µM) | 16 (≈ 68.9 µM) | 16 (≈ 68.9 µM) | 64 (≈ 276 µM) | 64 (≈ 276 µM) | 16 (≈ 68.9 µM) | 8 (≈ 34.4 µM) | 2 (≈ 8.61 µM) | 16 (≈ 68.9 µM) | 16 (≈ 68.9 µM) | 64 (≈ 276 µM) | 256 (≈ 1100 µM) | 2 (≈ 8.61 µM) | 32 (≈ 138 µM) | 32 (≈ 138 µM)
7 | CCn1cc(C(=O)O)c(=O)c2cc(F)c(N3CCNCC3)cc21 [NORFLOXACIN] | 0.125 (≈ 0.391 µM) | 0.25 (≈ 0.783 µM) | 0.125 (≈ 0.391 µM) | 0.125 (≈ 0.391 µM) | 0.25 (≈ 0.783 µM) | 0.5 (≈ 1.57 µM) | 0.125 (≈ 0.391 µM) | 0.125 (≈ 0.391 µM) | 0.03 (≈ 0.0939 µM) | 0.25 (≈ 0.783 µM) | 0.125 (≈ 0.391 µM) | 0.25 (≈ 0.783 µM) | 4 (≈ 12.5 µM) | 0.03 (≈ 0.0939 µM) | 0.125 (≈ 0.391 µM) | 0.25 (≈ 0.783 µM)
8 | Cc1c(C(=O)NCCO)[n+]([O-])c2ccccc2[n+]1[O-] [OLAQUINDOX] | 256 (≈ 972 µM) | 256 (≈ 972 µM) | 512 (≈ 1940 µM) | 256 (≈ 972 µM) | 512 (≈ 1940 µM) | 512 (≈ 1940 µM) | 256 (≈ 972 µM) | 256 (≈ 972 µM) | 8 (≈ 30.4 µM) | 256 (≈ 972 µM) | 128 (≈ 486 µM) | 256 (≈ 972 µM) | 512 (≈ 1940 µM) | 8 (≈ 30.4 µM) | 256 (≈ 972 µM) | 128 (≈ 486 µM)
9 | CN[C@@H]1[C@H](O[C@H]2[C@H](O[C@H]3[C@H](O)[C@@H](O)[C@H](N=C(N)N)[C@@H](O)[C@@H]3N=C(N)N)O[C@@H](C)[C@]2(O)C=O)O[C@@H](CO)[C@H](O)[C@H]1O [STREPTOMYCIN] | > 524 | > 517 | > 516 | > 514 | > 515 | > 522 | > 520 | > 525 | 4 (≈ 6.88 µM) | > 521 | > 513 | > 519 | > 523 | > 512 | > 518 | 2 (≈ 3.44 µM)
10 | CN(C)[C@@H]1C(O)=C(C(N)=O)C(=O)[C@@]2(O)C(O)=C3C(=O)c4c(O)cccc4[C@@](C)(O)[C@H]3C[C@@H]12 [TETRACYCLINE] | 2 (≈ 4.5 µM) | 32 (≈ 72 µM) | 1 (≈ 2.25 µM) | 64 (≈ 144 µM) | 1 (≈ 2.25 µM) | 1 (≈ 2.25 µM) | 32 (≈ 72 µM) | 4 (≈ 9 µM) | 2 (≈ 4.5 µM) | 64 (≈ 144 µM) | 2 (≈ 4.5 µM) | 4 (≈ 9 µM) | 2 (≈ 4.5 µM) | 1 (≈ 2.25 µM) | 4 (≈ 9 µM) | 4 (≈ 9 µM)
11 | GENTAMICIN | 0.25 |  | 0.25 | 1 | 0.125 | 32 |  | 0.25 |  |  |  | 0.25 | 0.25 |  |  | 0.125
